This is an account of results in patent US6677381B1 (Jame Fine Chemicals, Inc., priority 2001, dated 2004).

A short description of data set [1]: Solubility in water and organic solvents. The data set is classed as physicochemical. An excerpt: The guaifenesin tannate of the invention is a light-tan colored powder which is soluble in water and alcohols, but is insoluble in methylene chloride, chloroform or toluene. […]
For data set [2] the following is noted: cited from earlier work; for solubility in alcohols: alcohols such as methanol, ethanol, isopropanol.

Read-outs that look alike come from different tables or passages of the source.

With `COc1ccccc1OCC(O)CO` (centres unmarked) [guaifenesin, 3-(2-methoxyphenoxy)-1,2-propanediol], in data set [1], the solubility in alcohols result is listed as “soluble”, the solubility in toluene entry was “sparingly soluble” and the solubility in water entry was “soluble”. In addition, in data set [2], the solubility in alcohols result was “readily soluble” and the solubility in water result was “about 5 wt. %”.

Consider `O=C(OC[C@H]1O[C@@H](OC(=O)c2cc(O)c(O)c(OC(=O)c3cc(O)c(O)c(O)c3)c2)[C@H](OC(=O)c2cc(O)c(O)c(OC(=O)c3cc(O)c(O)c(O)c3)c2)[C@@H](OC(=O)c2cc(O)c(O)c(OC(=O)c3cc(O)c(O)c(O)c3)c2)[C@@H]1OC(=O)c1cc(O)c(O)c(OC(=O)c2cc(O)c(O)c(O)c2)c1)c1cc(O)c(O)c(OC(=O)c2cc(O)c(O)c(O)c2)c1` [tannic acid], for which, in data set [1], the solubility in alcohols entry is on record as “soluble”, the solubility in chloroform result was “insoluble”, the “solubility in methylene chloride” value is given as “insoluble” and the solubility in toluene entry is listed as “insoluble”. Also, the solubility in water entry in data set [1] is listed as “soluble”. Also, the solubility in alcohols result in data set [2] is “highly soluble”. Besides, the solubility in water entry in data set [2] (in words) is given as “highly soluble”.

For guaifenesin tannate, in data set [1] (alcohols, physical properties comparison), the solubility in alcohols result is given as “soluble”. For the same compound, in data set [1] (chloroform), the solubility in chloroform entry was “insoluble”. The “solubility in methylene chloride” value in data set [1] (methylene chloride) is on record as “insoluble”. In addition, the solubility in toluene result in data set [1] (toluene) is “insoluble”. For the same compound, the solubility in water result in data set [1] (water, physical properties comparison) is on record as “soluble”.
